From article PMC10840383, “Clinical features, functional consequences, and rescue pharmacology of missense GRID1 and GRID2 human variants” (Human Molecular Genetics, 2023)
Changes are numbered by the printed parent chain.

Experiments:
Format in all cases: cell-based
[1] = tested on: constitutively active GluD1 and GluD2 receptor variants; experiment: Inhibition of constitutive currents of GluD variants by channel blockers, Xenopus oocytes
Method: Xenopus laevis oocytes were prepared from ovaries purchased from Xenopus 1 (Dexter, MI) as previously described, [68] and incubated at 16°C in culture Barth’s solution (in mM) 88 NaCl, 2.4 NaHCO3, 1 KCl, 0.33 Ca(NO3)2, 0.41 CaCl2, 0.82 MgSO4, 10 HEPES, pH 7.4 with NaOH, supplemented with 1 U/ml penicillin and 1 μg/ml streptomycin. Oocytes were injected with approximately 5–40 ng RNA per oocyte and then incubated at 16–19°C for 1–3 days in culture Barth’s solution. The levels of GluD2-A654D and GluD2-A654T cRNA were reduced to 1.5 ng and 2.5 ng, respectively, due to oocyte toxicity. Two-electrode voltage clamp (TEVC) recordings were performed as previously described. Unless otherwise specified, extracellular solution contained (in mM) 90 NaCl, 3 KCl, 0.5 BaCl2, 0.01 EDTA, 10 HEPES, and was brought to pH 7.4 with NaOH. The oocytes were placed in a dual track recording chamber and gravity perfused with solution exchange controlled via a computer-driven 8-valve positioner (Digital MVP Valve). […] Recording electrodes were filled with 0.3 M KCl, and currents were recorded with membrane voltage held at −40 mV. To establish constitutive activity of recombinant receptors when compared to wild type receptors, we used the oocyte recording solution described above, but with 90 mM N-methyl-D-glucamine (NMDG) chloride replacing 90 mM NaCl. […] In addition to establishing constitutive activity, 90 mM NMDG was used in recording protocols with drug treatment to obtain the percent maximum theoretical inhibition of a compound, or to determine the relative degree of drug potentiation. For Ca^2+ concentration-response curves, choline chloride was used to maintain equimolar concentrations of Cl^− ions in the extracellular solution across the changing concentrations of calcium chloride. All compounds used in this study for concentration-response oocyte recordings were dissolved in deionized water as 50–100 mM stock solutions. In some rescue pharmacology experiments, we substituted 1 mM CaCl2 for 0.5 mM BaCl2 to evaluate Ca^2+-dependent control of receptor responses.

GluD2-R710W = target: T1, GluD2-R710W (Rattus norvegicus, UniProt Q63226, R710W); experiment: TEVC of constitutive current, Xenopus oocytes expressing GluD2-R710W; conditions: positive = increase, negative = decrease of activity
T1 construct: expressed in transfected cells; host or cells: Xenopus laevis oocytes injected with cRNA
T1 sequence (Q63226 24-1007 R710W): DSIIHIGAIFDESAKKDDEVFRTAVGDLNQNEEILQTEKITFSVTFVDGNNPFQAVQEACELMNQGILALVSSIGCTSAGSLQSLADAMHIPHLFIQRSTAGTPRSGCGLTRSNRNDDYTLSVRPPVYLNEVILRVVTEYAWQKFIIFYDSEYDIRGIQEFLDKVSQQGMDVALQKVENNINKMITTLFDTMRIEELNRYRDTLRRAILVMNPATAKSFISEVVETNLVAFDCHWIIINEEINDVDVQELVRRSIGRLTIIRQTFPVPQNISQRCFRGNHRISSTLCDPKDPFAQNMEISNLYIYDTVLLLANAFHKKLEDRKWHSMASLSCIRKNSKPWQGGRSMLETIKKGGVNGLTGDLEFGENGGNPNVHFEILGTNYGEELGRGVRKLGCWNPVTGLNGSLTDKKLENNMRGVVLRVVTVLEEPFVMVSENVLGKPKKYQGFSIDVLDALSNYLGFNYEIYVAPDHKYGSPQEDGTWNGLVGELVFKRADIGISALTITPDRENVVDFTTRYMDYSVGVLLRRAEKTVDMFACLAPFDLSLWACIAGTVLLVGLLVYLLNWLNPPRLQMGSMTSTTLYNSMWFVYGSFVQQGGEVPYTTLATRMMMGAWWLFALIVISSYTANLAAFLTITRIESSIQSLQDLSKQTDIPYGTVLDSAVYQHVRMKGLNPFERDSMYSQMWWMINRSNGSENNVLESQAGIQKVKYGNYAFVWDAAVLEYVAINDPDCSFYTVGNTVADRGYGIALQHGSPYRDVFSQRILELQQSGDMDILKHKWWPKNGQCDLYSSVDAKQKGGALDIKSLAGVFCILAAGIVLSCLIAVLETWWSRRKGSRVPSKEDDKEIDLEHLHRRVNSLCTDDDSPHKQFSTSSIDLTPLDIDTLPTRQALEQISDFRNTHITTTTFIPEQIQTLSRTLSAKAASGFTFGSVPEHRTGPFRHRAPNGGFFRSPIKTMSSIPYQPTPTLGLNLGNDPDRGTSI

GluD2-T649M = target: T2, GluD2-T649M (Rattus norvegicus, UniProt Q63226, T649M); experiment: TEVC of constitutive current, Xenopus oocytes expressing GluD2-T649M; conditions: positive = increase, negative = decrease of activity
T2 construct: expressed in transfected cells; host or cells: Xenopus laevis oocytes injected with cRNA
T2 sequence (Q63226 24-1007 T649M): T1 sequence (Q63226 24-1007 R710W) with T626M, W687R

Row | SMILES | Inhibition of constitutive currents, in words [1] | D-Serine effect (Baseline −10 mM D-Serine) (GluD2-R710W; 10 mM D-serine) | D-Serine effect (Baseline −10 mM D-Serine) (GluD2-T649M; 10 mM D-serine) | Pentamidine effect (Baseline −100 μM Pentamidine) (GluD2-R710W; 100 μM pentamidine) | Pentamidine effect (Baseline −100 μM Pentamidine) (GluD2-T649M; 100 μM pentamidine)
1 | CC12CC3CC(C)(C1)CC(N)(C3)C2 [Memantine, memantine] | more effectively than ketamine |  |  |  | 
2 | N[C@H](CO)C(=O)O [D-serine] |  | −2.3 ± 0.60 (11) nA | −0.31 ± 2.8 (16) nA |  | 
3 | N=C(N)c1ccc(OCCCCCOc2ccc(C(=N)N)cc2)cc1 [Pentamidine, pentamidine] | inhibits |  |  | 0.82 ± 1.9 (11) nA | 5.8 ± 7.0 (16) nA
